Patent publication US20090247646A1, “USE OF RESVERATROL AND DERIVATIVES THEREOF FOR PROMOTING THE WELLNESS STATE IN MAMMALS” (priority 2006, published 2009)

Test system: gene expression profile of heart, output variable Age
Experiment: Classification of gene expression profile for age (Young/Old) using supervised learning, Support Vector Machine
Type: in vivo, mice
Experimental: Male B6C3F, mice (6-7 weeks of age) were purchased from Harlan Sprague Dawley. Mice were housed singly and provided water ad libitum. The control group (OC, N=5) was fed 98 kcal/week of modified AIN-93M semi-purified diet (Bio-serv, Frenchtown, N.J.), which provides approximately 15% fewer calories than the average ad libitum dietary intake. The treatment group (RES, N=5) was fed the same caloric intake as controls, but were supplemented with resveratrol 50 mg/kg diet (w/w) (3,4′,5-Trihydroxy-trans-stilbene; Sigma) from 14 months of age. Animals (OC and RES) were sacrificed at 30 months of age. Young animals were sacrificed at 5 months of age (YC, N=5). Hearts from all abovementioned groups were collected, immediately frozen in liquid nitrogen and stored at −80° C. until analysis.
Total RNA was extracted from frozen tissue by using TRIZOL reagent (Life Technologies, Grand Island, N.Y.). Polyadenylate [poly(A)^+] RNA was purified from total RNA with oligo-dT-linked oligotex resin (Qiagen, Valencia, Calif.). […]
For the classification analysis, supervised learning using Support Vector Machine (SVM) was performed based on supplied training data, “Young (YC)” and “Old (OC)” groups, to find rules for predicting the output variable “Age”. […] Results from the resveratrol group were then analysed using the Classification function for prediction of the output variable, “Age”. […]

SMILES: Oc1ccc(/C=C/c2cc(O)cc(O)c2)cc1 [resveratrol, 3,4′,5-Trihydroxy-trans-stilbene]
- Classification of chips for output variable Age (all 4 chips of resveratrol group): classified as Young
- Average of g (mean classification output of group) (mean of 4 chips of the RES group, YC 0.9998575, OC −1.023992): 0.3486
